# Data taken from patent publication US12673022B2, “Drug delivery system using solution” (Kyoto University, priority 2018, dated 2026).
# Test system: human DMD exon 45 knock-in/mouse Dmd exon 44 knock-out mouse tibialis anterior muscle
# Experiment: Exon skipping efficiency in skeletal muscle (human DMD exon 45)
# Format: in vivo
# Details: Example 7; administration solution 3: 25 mM or 250 mM 6-phospho-D-gluconic acid or N-carbamyl-L-aspartic acid, 158 mM sodium chloride, hEx45 #1 and #23 gRNA/Cas9; 50 μL once, day 7; Dunnett's test; FIG. 11
# Procedure: Cas9 protein (120 μg), hDMD Ex45 #1 gRNA (15 μg), hDMD Ex45 #23 gRNA (15 μg) and 10×PBS (25 μL) were mixed and a 500 mM compound stock solution was added, and then, 500 mM compound stock solution was added to the mixture so as to obtain final concentrations: […], […], 300 ng/μL hDMD Ex45 #23 gRNA, 158 mM sodium chloride, 25 mM or 250 mM compound and diluted with UltraPure DNase/RNase-Free Distilled Water up to a liquid volume of 250 μL and incubated at normal temperature for 15 minutes. The Cas9 protein herein was subjected to buffer replacement with 250 mM sodium chloride by use of Amicon® Ultra 2 mL Centrifugal Filters and then put in use […]
# To the tibialis anterior muscle of each of 4 weeks-old male human DMD exon 45 knock-in/mouse Dmd exon 44 knock-out mice, administration solution 3 (50 μL) was administered once. […] Subsequently, a product with skipping was quantitatively measured by use of FastStart Universal Probe Master (Roche), the primers represented by SEQ ID Nos. 14 and 15 and the probe of sequence 16. The product without skipping was quantitatively measured by use of FastStart Universal Probe Master (Roche), the primers represented by SEQ ID Nos. 17 and 18 and the probe of sequence 19. Each of the PCR products was measured by use of ViiA7™ real time PCR system. […]
compound,measurement,value
NC(=O)N[C@@H](CC(=O)O)C(=O)O [N-Carbamyl-L-aspartic acid],Exon skipping activity (skipping efficiency %) compared to 250 mM GABA,statistically significant results compared to 250 mM GABA
